Consider two molecules from patent US10710978B2, “STK4 inhibitors for treatment of hematologic malignancies” (Dana-Farber Cancer Institute, Inc., priority 2015, dated 2020).

Holding throughout (format): binding
The target in one assay is BMPR1B (Homo sapiens (Human), UniProt O00238). The assay can be described thus: Ambit KINOSCAN assay. The settings on record: read-out: percent control (%) at 1 uM. The method, then:
(§1) Kinase Selectivity Studies
(§2) To directly test the kinase selectivity of a compound of the present application over other human protein kinases, the compounds were tested in an Ambit KINOSCAN assay. Ambit KINOSCAN assay is an ATP site dependent competition assay. T7 kinase-tagged phage strains were grown in parallel in 24- or 96-well blocks in an E. coli host derived from the BL21 strain. E. Coli were grown to log phase and infected with T7 phage from a frozen stock and incubated with shaking at about 32° C. until lysis (˜90 min). The lysates were centrifuged (6,000 g) and filtered ([…]) to remove cell debris. […] The liganded beads were blocked with excess biotin and washed with blocking buffer (Seablock (Pierce), 1% BSA, 0.05% Tween 20, 1 mM DTT) to remove unbound ligand and to reduce non-specific phage binding. Binding reactions were assembled by combining phage lysates, liganded affinity beads, and test compounds (i.e., compounds of the present application) in 1× binding buffer (20% SeaBlock, 0.17×PBS, 0.05% Tween […]). Test compounds were prepared 1000× stocks in DMSO and rapidly diluted into the aqueous environment (0.1% DMSO final). DMSO (0.1%) was used as a control. All reactions were carried out in polystyrene 96-well plates that had been pre-treated with blocking buffer in a final volume of 0.1 ml. […] The phage titer in the eluates was measured by standard plaque assays or quantitative PCR. Binding data were fit to the equation […]), where L is the lower baseline, H is the upper baseline, Kd(test) is the biding constant for the interaction between the test compound and the kinase, and [test] is the free test compound concentration. Binding constants are measured in duplicate on the same day of testing. For more details on the Ambit KINOSCAN assay see Fabian, M. A., et al. “A Small Molecule-Kinase Interaction Map for Clinical Kinase Inhibitors” Nat. Biotechol. 23(3), 2005, 329-336. (Also see Davis, M. I., et al. “Comprehensive analysis of kinase inhibitor selectivity.” Nat. Biotechnol. 29(11), 2011, 1046-1051)

The next assay concerns the target GSK3A (Homo sapiens (Human), UniProt P49840). The assay can be described thus: Ambit KINOSCAN assay. To be noted: read-out: percent control (%) at 1 uM. The method, then:
as §1, §2

A further assay has as its target CSNK1G1 (Homo sapiens (Human), UniProt Q9HCP0). Briefly: Ambit KINOSCAN assay. To be noted: read-out: percent control (%) at 1 uM. The method, then: as §1, §2
Another assay concerns the target DYRK2 (Homo sapiens (Human), UniProt Q92630). Briefly: Ambit KINOSCAN assay. To be noted: read-out: percent control (%) at 1 uM. The procedure:
as §1, §2

Another assay concerns the target CSNK1G3 (Homo sapiens (Human), UniProt Q9Y6M4). The assay can be described thus: Ambit KINOSCAN assay. The method, then: as §1, §2
The next assay addresses DYRK1B (Homo sapiens (Human), UniProt Q9Y463). Briefly: Ambit KINOSCAN assay. To be noted: read-out: percent control (%) at 1 uM. The method, then: as §1, §2
The next assay concerns the target CLK4 (Homo sapiens (Human), UniProt Q9HAZ1). Briefly: Ambit KINOSCAN assay. The settings on record: read-out: percent control (%) at 1 uM. The method, then:
as §1, §2

For the next assay, the target named is CLK2 (Homo sapiens (Human), UniProt P49760). The assay can be described thus: Ambit KINOSCAN assay. To be noted: read-out: percent control (%) at 1 uM. The method, then:
as §1, §2

Another assay concerns the target IRAK1 (Homo sapiens (Human), UniProt P51617). The assay can be described thus: Ambit KINOSCAN assay. The procedure:
as §1, §2

The next assay addresses DRAK1 (Homo sapiens (Human), UniProt Q9UEE5). The assay can be described thus: Ambit KINOSCAN assay. To be noted: read-out: percent control (%) at 1 uM. The method, then:
as §1, §2

For another assay, the target named is CSNK1A1 (Homo sapiens (Human), UniProt P48729). Briefly: Ambit KINOSCAN assay. The settings on record: read-out: percent control (%) at 1 uM. The procedure:
as §1, §2

In the next assay the target is CLK1 (Homo sapiens (Human), UniProt P49759). The assay can be described thus: Ambit KINOSCAN assay. The settings on record: read-out: percent control (%) at 1 uM. The method, then: as §1, §2
Another assay concerns the target CSNK1A1L (Homo sapiens (Human), UniProt Q8N752). The assay can be described thus: Ambit KINOSCAN assay. The settings on record: read-out: percent control (%) at 1 uM. The method, then: as §1, §2
The next assay deals with MST2 (Homo sapiens (Human), UniProt Q13188). Briefly: Ambit KINOSCAN assay. The method, then:
as §1, §2

The target of the next assay is VRK2 (Homo sapiens (Human), UniProt Q86Y07). Briefly: Ambit KINOSCAN assay. To be noted: read-out: percent control (%) at 1 uM. The method, then: as §1, §2
For the next assay, the target named is DYRK1A (Homo sapiens (Human), UniProt Q13627). Briefly: Ambit KINOSCAN assay. To be noted: read-out: percent control (%) at 1 uM. The procedure:
as §1, §2

A further assay concerns the target DCAMKL3 (Homo sapiens (Human), UniProt Q9C098). Briefly: Ambit KINOSCAN assay. To be noted: read-out: percent control (%) at 1 uM. The method, then: as §1, §2
In the next assay the target is MINK (Homo sapiens (Human), UniProt Q8N4C8). The assay can be described thus: Ambit KINOSCAN assay. The settings on record: read-out: percent control (%) at 1 uM. The method, then: as §1, §2
In a further assay the target is CSNK1G2 (Homo sapiens (Human), UniProt P78368). Briefly: Ambit KINOSCAN assay. The settings on record: read-out: percent control (%) at 1 uM. The method, then:
as §1, §2

A further assay deals with CSNK1E (Homo sapiens (Human), UniProt P49674). Briefly: Ambit KINOSCAN assay. The method, then: as §1, §2
The target of another assay is CIT (Homo sapiens (Human), UniProt O14578). The assay can be described thus: Ambit KINOSCAN assay. To be noted: read-out: percent control (%) at 1 uM. The procedure:
as §1, §2

The next assay addresses STK4 (Homo sapiens (Human), UniProt Q13043). The assay can be described thus: KiNativ Platform experiment, MM.1S cell lysates, biotinylated ATP, Western blot. The settings on record: 10 μM, 20 minutes, then biotinylated ATP 10 minutes. The method, then: FIG. 32A and FIG. 32B show the results of a KiNativ™ Platform experiment obtained after incubating MM.1S cell lysates with 10 μM of the indicated compounds for 20 minutes, followed by incubation with biotinylated ATP for 10 minutes. FIG. 32A is a graph showing the ratio of MEK2 to STK4 derived from the Western blotting band signals in FIG. 32B, in MM.1S cell lysates treated with 10 μM of Compound I-9, I-13, or I-27 or KIN001-305 followed by incubation with biotinylated ATP. FIG. 32B is a Western blot showing the levels of STK4 and MEK2 in MM.1S cells treated with 10 μM of Compound I-9, I-13, or I-27 or KIN001-305 followed by incubation with biotinylated ATP.

[1] abbreviates: read-out: percent control (%) at 1 uM.

Sequence of CSNK1E (P49674 whole entry): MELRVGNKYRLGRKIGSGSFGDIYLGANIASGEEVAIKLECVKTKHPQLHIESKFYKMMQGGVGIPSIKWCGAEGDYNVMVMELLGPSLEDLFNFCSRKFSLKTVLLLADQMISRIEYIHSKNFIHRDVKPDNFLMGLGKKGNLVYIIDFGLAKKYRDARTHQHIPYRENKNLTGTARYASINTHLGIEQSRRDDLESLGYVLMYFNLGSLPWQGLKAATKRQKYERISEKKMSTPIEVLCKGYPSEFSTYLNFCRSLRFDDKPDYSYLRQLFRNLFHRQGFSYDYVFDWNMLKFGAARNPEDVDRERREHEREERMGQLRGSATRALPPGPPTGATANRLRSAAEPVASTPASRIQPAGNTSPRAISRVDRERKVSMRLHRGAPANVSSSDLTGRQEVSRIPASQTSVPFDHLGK
Sequence of MST2 (Q13188 whole entry): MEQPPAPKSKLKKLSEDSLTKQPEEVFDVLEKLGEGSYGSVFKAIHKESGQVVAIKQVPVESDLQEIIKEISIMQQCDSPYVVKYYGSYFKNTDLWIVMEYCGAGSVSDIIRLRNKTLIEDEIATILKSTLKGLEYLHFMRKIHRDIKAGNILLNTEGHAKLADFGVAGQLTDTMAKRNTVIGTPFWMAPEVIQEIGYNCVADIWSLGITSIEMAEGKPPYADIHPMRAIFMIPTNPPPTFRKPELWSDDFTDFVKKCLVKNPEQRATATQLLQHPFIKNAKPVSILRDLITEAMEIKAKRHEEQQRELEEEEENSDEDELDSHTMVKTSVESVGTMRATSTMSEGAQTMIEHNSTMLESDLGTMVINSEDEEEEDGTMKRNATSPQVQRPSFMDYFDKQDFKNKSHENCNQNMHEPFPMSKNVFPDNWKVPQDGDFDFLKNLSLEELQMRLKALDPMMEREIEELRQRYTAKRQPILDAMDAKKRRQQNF
Sequence of IRAK1 (P51617 whole entry): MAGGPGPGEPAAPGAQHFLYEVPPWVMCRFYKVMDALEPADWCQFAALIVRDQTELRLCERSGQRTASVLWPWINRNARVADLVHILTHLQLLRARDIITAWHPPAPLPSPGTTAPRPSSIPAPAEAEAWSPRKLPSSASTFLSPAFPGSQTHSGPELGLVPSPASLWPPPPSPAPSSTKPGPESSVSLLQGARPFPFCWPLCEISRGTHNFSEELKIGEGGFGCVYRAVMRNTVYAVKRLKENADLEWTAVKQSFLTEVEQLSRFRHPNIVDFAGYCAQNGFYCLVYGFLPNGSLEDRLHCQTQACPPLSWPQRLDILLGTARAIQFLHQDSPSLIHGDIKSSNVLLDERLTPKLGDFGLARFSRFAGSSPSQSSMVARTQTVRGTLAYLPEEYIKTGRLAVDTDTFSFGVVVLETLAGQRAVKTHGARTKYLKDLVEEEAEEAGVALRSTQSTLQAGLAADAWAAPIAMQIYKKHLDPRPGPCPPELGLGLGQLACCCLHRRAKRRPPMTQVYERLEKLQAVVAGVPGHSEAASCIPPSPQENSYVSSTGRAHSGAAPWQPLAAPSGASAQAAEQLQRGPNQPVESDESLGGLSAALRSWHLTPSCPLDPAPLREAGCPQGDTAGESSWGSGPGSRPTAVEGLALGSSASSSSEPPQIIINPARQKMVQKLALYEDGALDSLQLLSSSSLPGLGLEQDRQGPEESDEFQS
Sequence of CSNK1G3 (Q9Y6M4 whole entry): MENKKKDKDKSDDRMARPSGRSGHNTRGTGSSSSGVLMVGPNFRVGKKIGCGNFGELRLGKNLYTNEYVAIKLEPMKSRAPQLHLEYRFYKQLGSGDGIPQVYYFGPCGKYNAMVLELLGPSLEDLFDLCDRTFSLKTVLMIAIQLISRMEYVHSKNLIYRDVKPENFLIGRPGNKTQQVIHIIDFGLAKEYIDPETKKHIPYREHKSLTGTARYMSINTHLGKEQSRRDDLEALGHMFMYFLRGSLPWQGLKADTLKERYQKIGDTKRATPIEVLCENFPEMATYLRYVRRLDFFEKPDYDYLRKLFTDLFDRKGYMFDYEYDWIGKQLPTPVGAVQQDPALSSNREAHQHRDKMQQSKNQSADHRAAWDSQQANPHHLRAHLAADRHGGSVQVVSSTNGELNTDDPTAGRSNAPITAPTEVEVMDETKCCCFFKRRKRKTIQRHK
Sequence of VRK2 (Q86Y07 whole entry): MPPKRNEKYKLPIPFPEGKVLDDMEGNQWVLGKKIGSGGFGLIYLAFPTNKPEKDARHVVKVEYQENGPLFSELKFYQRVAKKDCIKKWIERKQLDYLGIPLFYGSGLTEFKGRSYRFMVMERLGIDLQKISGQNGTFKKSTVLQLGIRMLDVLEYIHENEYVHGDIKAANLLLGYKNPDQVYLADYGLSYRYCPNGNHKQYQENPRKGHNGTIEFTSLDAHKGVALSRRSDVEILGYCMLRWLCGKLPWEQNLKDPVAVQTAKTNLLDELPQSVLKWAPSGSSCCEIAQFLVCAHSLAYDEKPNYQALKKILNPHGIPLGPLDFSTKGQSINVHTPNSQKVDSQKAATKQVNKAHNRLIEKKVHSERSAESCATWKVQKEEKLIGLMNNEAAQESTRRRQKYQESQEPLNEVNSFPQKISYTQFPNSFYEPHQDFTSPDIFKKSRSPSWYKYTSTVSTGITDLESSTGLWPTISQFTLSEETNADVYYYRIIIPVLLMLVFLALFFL
Sequence of DYRK1B (Q9Y463 whole entry): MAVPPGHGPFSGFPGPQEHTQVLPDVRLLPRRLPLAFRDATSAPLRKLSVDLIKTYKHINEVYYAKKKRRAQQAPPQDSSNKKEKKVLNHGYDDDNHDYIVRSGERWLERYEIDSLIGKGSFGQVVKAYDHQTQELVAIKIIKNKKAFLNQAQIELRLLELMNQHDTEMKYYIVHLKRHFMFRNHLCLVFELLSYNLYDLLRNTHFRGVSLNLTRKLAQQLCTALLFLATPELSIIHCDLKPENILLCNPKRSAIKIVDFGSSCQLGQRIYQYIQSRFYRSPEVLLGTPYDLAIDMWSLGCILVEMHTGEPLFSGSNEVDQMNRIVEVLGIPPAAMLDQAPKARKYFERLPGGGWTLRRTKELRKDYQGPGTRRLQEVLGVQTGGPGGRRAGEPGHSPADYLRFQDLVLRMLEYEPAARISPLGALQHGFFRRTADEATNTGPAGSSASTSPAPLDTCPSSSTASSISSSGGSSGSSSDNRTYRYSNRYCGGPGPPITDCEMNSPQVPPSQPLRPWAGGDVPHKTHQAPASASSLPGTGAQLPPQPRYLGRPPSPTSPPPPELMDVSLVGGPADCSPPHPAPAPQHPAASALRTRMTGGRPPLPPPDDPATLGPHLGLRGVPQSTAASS
Sequence of CSNK1A1L (Q8N752 whole entry): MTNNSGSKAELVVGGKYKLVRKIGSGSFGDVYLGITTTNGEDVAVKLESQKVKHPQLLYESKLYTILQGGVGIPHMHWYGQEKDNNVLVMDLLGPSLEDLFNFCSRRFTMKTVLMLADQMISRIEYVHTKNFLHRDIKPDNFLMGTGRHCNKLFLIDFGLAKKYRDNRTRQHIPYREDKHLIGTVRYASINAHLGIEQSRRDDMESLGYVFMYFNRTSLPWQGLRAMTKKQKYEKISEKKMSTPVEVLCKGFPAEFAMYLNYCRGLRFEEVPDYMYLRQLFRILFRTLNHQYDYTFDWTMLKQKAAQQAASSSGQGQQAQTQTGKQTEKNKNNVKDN
Sequence of DRAK1 (Q9UEE5 whole entry): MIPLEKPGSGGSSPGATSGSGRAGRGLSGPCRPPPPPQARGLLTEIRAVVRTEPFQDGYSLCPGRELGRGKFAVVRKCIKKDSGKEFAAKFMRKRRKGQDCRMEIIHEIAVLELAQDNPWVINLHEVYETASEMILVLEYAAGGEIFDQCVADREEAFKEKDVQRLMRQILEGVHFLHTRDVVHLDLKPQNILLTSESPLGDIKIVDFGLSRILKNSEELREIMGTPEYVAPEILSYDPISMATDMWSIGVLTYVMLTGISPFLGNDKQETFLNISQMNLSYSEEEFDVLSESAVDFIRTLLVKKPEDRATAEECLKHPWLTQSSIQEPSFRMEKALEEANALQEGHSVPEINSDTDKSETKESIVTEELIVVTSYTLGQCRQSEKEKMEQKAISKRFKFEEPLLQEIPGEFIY
Sequence of BMPR1B (O00238 14-502): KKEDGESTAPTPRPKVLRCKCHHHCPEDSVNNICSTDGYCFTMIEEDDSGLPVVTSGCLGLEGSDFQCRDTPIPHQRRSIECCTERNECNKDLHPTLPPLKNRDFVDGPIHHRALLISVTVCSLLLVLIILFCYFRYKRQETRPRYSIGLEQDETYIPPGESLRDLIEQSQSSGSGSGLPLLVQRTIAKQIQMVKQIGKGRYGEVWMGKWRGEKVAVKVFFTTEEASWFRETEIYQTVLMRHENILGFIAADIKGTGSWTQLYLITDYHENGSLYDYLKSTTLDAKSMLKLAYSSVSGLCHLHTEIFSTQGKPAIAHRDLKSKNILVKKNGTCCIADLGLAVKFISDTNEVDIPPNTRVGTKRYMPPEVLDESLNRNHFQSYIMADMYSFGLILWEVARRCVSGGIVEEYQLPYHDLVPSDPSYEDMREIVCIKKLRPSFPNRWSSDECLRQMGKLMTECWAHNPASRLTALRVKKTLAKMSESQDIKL
Sequence of CLK1 (P49759 whole entry): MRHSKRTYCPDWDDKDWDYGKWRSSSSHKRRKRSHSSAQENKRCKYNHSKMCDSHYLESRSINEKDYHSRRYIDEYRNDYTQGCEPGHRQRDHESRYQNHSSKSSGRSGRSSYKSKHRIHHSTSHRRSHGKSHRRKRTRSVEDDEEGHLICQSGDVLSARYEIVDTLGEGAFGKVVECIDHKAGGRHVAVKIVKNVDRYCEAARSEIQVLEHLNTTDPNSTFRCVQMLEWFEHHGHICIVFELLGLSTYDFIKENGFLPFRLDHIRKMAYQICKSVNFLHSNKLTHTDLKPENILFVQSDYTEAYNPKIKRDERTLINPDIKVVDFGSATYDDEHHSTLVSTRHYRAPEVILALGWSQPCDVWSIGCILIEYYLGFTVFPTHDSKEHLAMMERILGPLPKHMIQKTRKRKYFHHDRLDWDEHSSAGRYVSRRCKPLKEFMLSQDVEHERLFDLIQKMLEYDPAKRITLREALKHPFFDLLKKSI

The term IC50 denotes the midpoint of a concentration-inhibition curve. Read a low IC50 as greater potency. Consider `Nc1ncc(-c2cc([N+](=O)[O-])ccc2F)cc1-c1ccc2c(c1)CCNC2=O` [Compound I-1, 6-(2-amino-5-(2-fluoro-5-nitrophenyl)pyridin-3-yl)-3,4-dihydroisoquinolin-1(2H)-one], for which the remaining binding at 1 µM at BMPR1B was determined as 0.75%; at GSK3A, 0%; on CSNK1G1 it was 4.6%; at DYRK2, 3%; on CSNK1G3 (setting [1]), 0%; at DYRK1B, 0.75%. Further, the remaining binding at 1 µM is 2.6% at CLK4; 5% on CLK2; 2.8% at IRAK1 (setting [1]); 0.15% on DRAK1; 3.7% on CSNK1A1; 1.6% at CLK1. Besides, the remaining binding at 1 µM at CSNK1A1L worked out at 1.7%; on MST2 (setting [1]), 1.2%; at VRK2 it was 2.4%; at DYRK1A, 0%; at DCAMKL3, 2.5%; at MINK, 3.8%. The remaining binding at 1 µM stood at 4% at CSNK1G2, 0.1% on CSNK1E (setting [1]) and 0.05% on CIT. Besides, the 50% inhibitory concentration (IC50) against CSNK1G3 (Kinase Selectivity Data, CSNK1G3) turned out to be 4.68 nM; on IRAK1 (Kinase Selectivity Data, IRAK1), 110 nM; at MST2 (Kinase Selectivity Data, MST2) it was 42.6 nM; on CSNK1E (Kinase Selectivity Data, CSNK1E), 201 nM.
For `Nc1ncc(-c2cccc([N+](=O)[O-])c2F)cc1-c1ccc2c(c1)CCNC2=O` [Compound I-9, 6-(2-amino-5-(2-fluoro-3-nitrophenyl)pyridin-3-yl)-3,4-dihydroisoquinolin-1(2H)-one], the “affinity for STK4, as of ATP binding” value at STK4 is listed as “highest affinity”.
